Test results: BigSolDB 2.1

O=Cc1cc(C=O)cc(C=O)c1
solubility (mole fraction)
Details	283.15 K	288.15 K	293.15 K	298.15 K	303.15 K	308.15 K	313.15 K	318.15 K	323.15 K
in 1,4-dioxane	–	0.0135	0.0164	0.0206	0.0249	0.0288	0.0336	0.0372	0.041
in acetone	0.01	0.0112	0.0132	0.0152	0.0191	0.023	0.0265	0.0307	0.035
in acetonitrile	0.00502	0.00616	0.00711	0.00872	0.01	0.0113	0.0137	0.0153	0.0178
in ethanol	0.0018	0.00208	0.00251	0.00297	0.00365	0.00429	0.0052	0.00614	0.00703
in isobutanol	0.000219	0.000308	0.000396	0.000488	0.000917	0.00193	0.00277	0.00387	0.00601
in isopropanol	0.000462	0.000512	0.000605	0.00069	0.000803	0.00147	0.00216	0.00291	0.00363
in methanol	0.00351	0.00442	0.00563	0.00691	0.00858	0.0101	0.0122	0.0142	0.0158
in n-butanol	0.000718	0.000765	0.000864	0.0013	0.00181	0.00242	0.00288	0.0037	0.00565
in n-pentanol	0.00134	0.00153	0.00185	0.00216	0.00244	0.00276	0.00341	0.0042	0.00538
in n-propanol	0.000909	0.00104	0.00131	0.00154	0.00194	0.00243	0.00296	0.00347	0.00405
in sec-butanol	0.000294	0.000394	0.000601	0.000789	0.00101	0.00128	0.00155	0.00206	0.00254
in water	4.1e-05	6.1e-05	8.8e-05	0.000108	0.000132	0.000152	0.00017	0.000185	0.000198
